Source: ChEMBL document CHEMBL1201862, “PubChem BioAssay data set” (2004)
Active and inactive are the calls of the source. Cut-off read from the data, not from the text of the source: actives have a measured IC50 and inactives only a lower limit.

Molecular target: Envelope glycoprotein gp160 (Human immunodeficiency virus 1, UniProt Q6QLK5)
Experiment: inhibitors of HIV fusion peptide binding, primary screen, biochemical, uHTS, fluorescence dequenching (AID 1986)

Envelope glycoprotein gp160, sequence (Q6QLK5 whole entry, the tested form may be a part): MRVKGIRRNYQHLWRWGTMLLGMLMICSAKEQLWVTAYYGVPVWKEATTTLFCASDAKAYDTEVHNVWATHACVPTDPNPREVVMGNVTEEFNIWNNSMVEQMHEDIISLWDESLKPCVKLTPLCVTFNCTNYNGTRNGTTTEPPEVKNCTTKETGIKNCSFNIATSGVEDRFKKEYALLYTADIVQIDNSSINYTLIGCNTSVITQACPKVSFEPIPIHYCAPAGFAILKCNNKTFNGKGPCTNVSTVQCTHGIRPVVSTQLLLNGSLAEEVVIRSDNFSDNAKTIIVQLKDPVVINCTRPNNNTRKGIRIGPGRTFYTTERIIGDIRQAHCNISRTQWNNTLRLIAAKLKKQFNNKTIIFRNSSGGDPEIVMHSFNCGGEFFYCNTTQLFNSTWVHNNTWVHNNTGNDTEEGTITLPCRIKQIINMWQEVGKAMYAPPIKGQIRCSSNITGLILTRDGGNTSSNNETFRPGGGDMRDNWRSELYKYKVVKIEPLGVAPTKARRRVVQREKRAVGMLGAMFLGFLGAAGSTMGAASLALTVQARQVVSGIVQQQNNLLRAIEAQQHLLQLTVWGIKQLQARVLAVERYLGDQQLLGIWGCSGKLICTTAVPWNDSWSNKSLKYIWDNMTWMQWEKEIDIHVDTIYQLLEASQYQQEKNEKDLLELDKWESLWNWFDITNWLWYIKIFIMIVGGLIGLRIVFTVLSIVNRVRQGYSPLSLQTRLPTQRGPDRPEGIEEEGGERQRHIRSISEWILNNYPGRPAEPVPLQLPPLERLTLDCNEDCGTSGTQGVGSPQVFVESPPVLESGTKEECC

Row | Structure (SMILES) | IC50
1 | COc1ccc(/C=C2/SC(=S)N(CC(=O)O)C2=O)cc1OCc1ccc(Cl)cc1 | 16.5 µM (active)
2 | COC(=O)c1sc(-c2ccc(C(C)(C)C)cc2)cc1NC(=O)c1ccccc1C(=O)O | 18.5 µM (active)
